Results taken from paper PMC6384901 (Molecules, 2019).
Numbered stars: 1 amine (or outer) side, 2 acyl side, 3 side chain; on linkers, the order of the positions; unused ones are H or OH. Bridge positions count the residues as written; N and C are the ends. Peptide text beside a SMILES is read from it. * marks the point of attachment. Suberoyl(Gly)2 = O=C(CCCCCCC(=O)NCC(=O)[*:2])NCC(=O)[*:1]; Suberoyl = O=C(CCCCCCC(=O)[*:2])[*:1]; Myristoyl = CCCCCCCCCCCCCC(=O)*; Suc = O=C(CCC(=O)[*:2])[*:1]

Assays:
[1] = tested on: His6-SIRT1 or GST-SIRT1, 243 nM; test: 50 mM Hepes (pH 8.0), 137 mM NaCl, 2.7 mM KCl, 1 mM MgCl2, 1 mM DTT, β-NAD^+ 0.5 mM; details: human, 37 °C, up to 5 min
His6-SIRT3, 739 nM = test: 50 mM Hepes (pH 8.0), 137 mM NaCl, 2.7 mM KCl, 1 mM MgCl2, 1 mM DTT, β-NAD^+ 3.5 mM; details: human, 37 °C, up to 2 min
His6-SIRT2, 297 nM = test: 50 mM Hepes (pH 8.0), 137 mM NaCl, 2.7 mM KCl, 1 mM MgCl2, 1 mM DTT, β-NAD^+ 0.5 mM; details: human, 37 °C, up to 2 min
[2] = target: T1, human recombinant His6-SIRT1 or GST-SIRT1 (Homo sapiens, UniProt Q96EB6); test: HPLC-based sirtuin deacylation activity assay, SIRT1; format: biochemical; details: substrate activity with SIRT1; 50 mM Hepes pH 8.0, 0.5 mM β-NAD+, SIRT1 243 nM, 37 °C, 5 min, HPLC 214 nm, Michaelis-Menten fit
T1 construct: His6 or GST (two alternative purchased preparations, not both on one protein); purchased Sigma-Aldrich China (His6-SIRT1); Cayman Chemical (GST-SIRT1)
T1 sequence (Q96EB6 1-747): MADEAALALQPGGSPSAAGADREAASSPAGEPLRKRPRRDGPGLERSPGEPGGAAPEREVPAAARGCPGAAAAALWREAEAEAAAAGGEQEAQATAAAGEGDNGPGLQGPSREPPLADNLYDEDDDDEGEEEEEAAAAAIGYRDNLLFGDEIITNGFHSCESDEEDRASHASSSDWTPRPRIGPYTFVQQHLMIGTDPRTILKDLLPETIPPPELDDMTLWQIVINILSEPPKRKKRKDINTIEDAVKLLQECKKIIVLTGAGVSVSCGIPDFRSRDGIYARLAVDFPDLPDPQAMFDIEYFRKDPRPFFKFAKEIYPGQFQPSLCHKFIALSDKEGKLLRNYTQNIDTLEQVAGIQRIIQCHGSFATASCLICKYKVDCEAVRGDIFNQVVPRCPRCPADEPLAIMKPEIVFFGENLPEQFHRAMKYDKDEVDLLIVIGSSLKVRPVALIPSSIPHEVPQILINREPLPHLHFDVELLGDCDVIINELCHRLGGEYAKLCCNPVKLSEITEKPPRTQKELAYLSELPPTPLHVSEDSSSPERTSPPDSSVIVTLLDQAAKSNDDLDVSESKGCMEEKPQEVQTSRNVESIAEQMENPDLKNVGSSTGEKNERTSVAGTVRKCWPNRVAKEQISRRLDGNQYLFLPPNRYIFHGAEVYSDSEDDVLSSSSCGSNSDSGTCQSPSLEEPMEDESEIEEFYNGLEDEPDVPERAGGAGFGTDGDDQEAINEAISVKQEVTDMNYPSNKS
Experimental: The steady-state kinetic parameters (kcat and KM) for the SIRT1/2/3 substrate activities of the purified 5–8 were determined with a HPLC-based sirtuin deacylation activity assay and are recorded in Table 2 and Table 3. As judged by kcat/KM ratios, cyclic peptides 5–8 were all found to be excellent SIRT1 substrates, actually 5, 7, and 8 are all better SIRT1 substrates than the linear hexapeptide-based SIRT1 substrate 3 (depicted in Figure 2) reported in the current literature (kcat/KM = 800 M^−1 s^−1). Cyclic peptides 5–8 were also all found to be better SIRT3 substrates than the linear hexapeptide-based SIRT3 substrate 3 reported in the current literature (kcat/KM = 990 M^−1·s^−1).
The following materials were obtained from commercial sources for the in vitro sirtuin deacylation activity assay and the pronase digestion assay, and were used as received. Sigma-Aldrich China: the active human recombinant His6-SIRT1, Trizma, Hepes, β-NAD^+, a 1.0 M solution of MgCl2 (molecular-biology grade), the pronase from Streptomyces griseus; Cayman Chemical (Ann Arbor, MI, USA): the active human recombinant GST-SIRT1, the active human recombinant His6-SIRT2, the active human recombinant His6-SIRT3; TCI Shanghai: DL-dithiothreitol (DTT); Alfa Aesar China: NaCl, KCl.
A sirtuin deacylation assay solution contained the following: 50 mM Hepes (pH 8.0), 137 mM NaCl, 2.7 mM KCl, 1 mM MgCl2, 1 mM DTT, β-NAD^+ (~5.6 × KM: 0.5 mM for the SIRT1 and SIRT2 assays, 3.5 mM for the SIRT3 assay), one test compound (5, 6, 7, or 8) with varied concentrations including 0, and a sirtuin (His6-SIRT1 or GST-SIRT1, 243 nM; His6-SIRT2, 297 nM; or His6-SIRT3, 739 nM). An enzymatic reaction was initiated by the addition of a sirtuin at 37 °C and was incubated at 37 °C for 5 min (for the SIRT1 assay) or 2 min (for the SIRT2 and SIRT3 assays) until quenched with the following stop solution: 100 mM HCl and 0.16 M acetic acid. The quenched assay solutions were directly injected into a C18 column (0.46 × 25 cm, 5 μm), and the column was eluted with a gradient of ddH2O containing 0.05% (v/v) TFA and acetonitrile containing 0.05% (v/v) TFA at 1 mL/min and was monitored at 214 nm. Turnover of the limiting substrate was kept at <10%. Stock solutions of the test compounds were all prepared in ddH2O. The integrated product and substrate HPLC peak areas were then used to determine the initial velocities for the sirtuin-catalyzed deacylation reaction at different concentrations of a test compound (5, 6, 7, or 8). The initial velocity-concentration data were analyzed with KaleidaGraph® (Synergy Software, Reading, PA, USA) and the data were fitted to the Michaelis-Menten equation to obtain the kinetic parameters kcat and KM, as recorded in Table 2 and Table 3.

pronase = pronase solution in 100 mM Tris HCl (pH 7.3) (8 ng/µL); details: Streptomyces griseus, 37 °C, up to 60 min

Compound	cleaved bond [1]	cleaved bond (His6-SIRT3, 739 nM)	cleaved bond (His6-SIRT2, 297 nM)	KM [2]	kcat [2]	fragment found (pronase)
CH3CONH-Lys-Lys-(N^ε-acetyl-Lysine)-Lys-NH2, side chains of Lys1 and Lys4 bridged by Gly-suberoyl-Gly (read from the drawn structure)	SIRT1-catalyzed deacylation of N^ε-acetyl-lysine	SIRT3-catalyzed deacylation of N^ε-acetyl-lysine	SIRT2-catalyzed deacylation of N^ε-acetyl-lysine			
CSCC[C@H](NC(=O)[C@@H]1CCCCNC(=O)CNC(=O)CCCCCCC(=O)NCC(=O)NCCCC[C@H](NC(C)=O)C(=O)N[C@@H](CCCCN)C(=O)N[C@@H](CCCCNC(C)=O)C(=O)N1)C(N)=O [Compound 5] (Ac-KKK(Ac)KM-NH2; linker 1-4 via Suberoyl(Gly)2)				22.2 ± 1.8 µM	35.6 ± 5.1 10^−3, s^−1	
CCCCCCCCCCCCCC(=O)NCCCC[C@@H]1NC(=O)[C@H](CCCNC(=N)N)NC(=O)[C@@H](NC(C)=O)CCCCNC(=O)CCCCCCC(=O)NCCCC[C@@H](C(=O)N[C@H](C(N)=O)[C@@H](C)O)NC1=O [Compound 7] (Ac-KRK(Myristoyl)KT-NH2; linker 1-4 via Suberoyl)				2.85 ± 0.13 µM	5.8 ± 0.1 10^−3, s^−1	
CC(=O)NCCCC[C@@H]1NC(=O)[C@H](CCCCN)NC(=O)[C@@H](NC(C)=O)CCCCNC(=O)CNC(=O)CCCCCCC(=O)NCC(=O)NCCCC[C@@H](C(N)=O)NC1=O [Compound 8] (Ac-KKK(Ac)K-NH2; linker 1-4 via Suberoyl(Gly)2)				42.2 ± 17.5 µM		
CH3CONH-Lys-Arg-(N^ε-myristoyl-Lysine)-Lys-Thr-NH2, side chains of Lys1 and Lys4 bridged by suberoyl (read from the drawn structure)	SIRT1-catalyzed deacylation of N^ε-myristoyl-lysine	SIRT3-catalyzed deacylation of N^ε-myristoyl-lysine	SIRT2-catalyzed deacylation of N^ε-myristoyl-lysine			
CH3CONH-Lys-Lys-(N^ε-acetyl-Lysine)-Lys-Met-NH2, side chains of Lys1 and Lys4 bridged by succinyl (read from the drawn structure)	SIRT1-catalyzed deacylation of N^ε-acetyl-lysine	SIRT3-catalyzed deacylation of N^ε-acetyl-lysine	SIRT2-catalyzed deacylation of N^ε-acetyl-lysine			
CSCC[C@H](NC(=O)[C@@H]1CCCCNC(=O)CCC(=O)NCCCC[C@H](NC(C)=O)C(=O)N[C@@H](CCCCN)C(=O)N[C@@H](CCCCNC(C)=O)C(=O)N1)C(N)=O [Compound 6] (Ac-KKK(Ac)KM-NH2; linker 1-4 via Suc)				41.3 ± 1.83 µM	25.9 ± 2.3 10^−3, s^−1	
CH3CONH-Lys-Lys-(N^ε-acetyl-Lysine)-Lys-Met-NH2, side chains of Lys1 and Lys4 bridged by Gly-suberoyl-Gly (read from the drawn structure)	SIRT1-catalyzed deacylation of N^ε-acetyl-lysine	SIRT3-catalyzed deacylation of N^ε-acetyl-lysine	SIRT2-catalyzed deacylation of N^ε-acetyl-lysine			5a
